pIC50: −log10 of the molar value. In brackets after ≈: the same amount, converted by molar mass. Activity calls are given as the source filed them. The calls are words filed in the database; no cut-off is given here. Some results are limits rather than exact numbers.

By pIC50 is commonly meant the IC50 on a negative log10 scale, so that one unit is a factor of ten. As usually defined, the solubility is the concentration that dissolves in the medium under given conditions. Higher therefore signals a readily soluble substance.

One series concerns Staphylococcus aureus. Briefly: Antibacterial activity against Staphylococcus aureus 29213 infected neutropenic mouse thigh model assessed as change in CFU at 100 mg/kg, po after 24 hrs.
Settings: not given
In kind it is functional, organism-based. Details: dose 100 mg/kg.
Turning to `CN(Cc1cc2ccccc2n1C)C(=O)/C=C/c1cnc2c(c1)CNCC(=O)N2`, the result was Active.

The target in the next series is T1, Enoyl-[acyl-carrier-protein] reductase [NADH] FabI (Escherichia coli K-12, UniProt P0AEK4).
T1 sequence (P0AEK4 whole entry): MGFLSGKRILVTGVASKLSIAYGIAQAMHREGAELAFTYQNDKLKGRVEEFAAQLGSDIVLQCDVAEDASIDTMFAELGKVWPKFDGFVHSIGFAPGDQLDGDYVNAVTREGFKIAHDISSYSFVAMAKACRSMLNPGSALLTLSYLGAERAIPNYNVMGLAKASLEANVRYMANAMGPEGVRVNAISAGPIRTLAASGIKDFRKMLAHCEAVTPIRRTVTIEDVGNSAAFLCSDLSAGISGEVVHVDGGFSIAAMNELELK
Test: not given
Settings: not given
For the molecule `Cc1c(CN(C)C(=O)/C=C/c2cnc3c(c2)NCCCN3)oc2ccccc12`, the negative-log IC50 (pIC50) was 7.92.

With `Cc1c(CN(C)C(=O)/C=C/c2cnc3c(c2)CNCCN3)oc2ccccc12`, the pIC50 is 7.85.

In turn, `Cc1c(CN(C)C(=O)/C=C/c2cnc3c(c2)CNCC(=O)N3)oc2ccccc12` showed a pIC50 of 7.54. This pIC50 lies 0.31 log units lower than the previous one.

For the molecule `CN(Cc1cc2ccccc2n1C)C(=O)/C=C/c1cnc2c(c1)CNCC(=O)N2`, the pIC50 was 6.48.

`Cc1c(CN(C)C(=O)/C=C/c2cnc3c(c2)CNC(=O)CCN3)oc2ccccc12` gave a negative-log IC50 (pIC50) of 7.52.

Take `Cc1c(CN(C)C(=O)/C=C/c2cnc3c(c2)CNCCN3)sc2ccccc12`: the negative-log IC50 (pIC50) is 8.05.

With `Cc1c(CN(C)C(=O)/C=C/c2cnc3c(c2)NCCC(=O)N3)sc2ccc(F)cc12`, the negative-log IC50 (pIC50) was 7.60.

Test system in another series: not listed separately
Briefly: physchem. Particulars: aqueous, pH 4.
Description: Aqueous solubility at pH 4.0
With `Cc1c(CN(C)C(=O)/C=C/c2cnc3c(c2)NCCCN3)oc2ccccc12`, the solubility was > 100 µg/mL.

Take `Cc1c(CN(C)C(=O)/C=C/c2cnc3c(c2)CNCCN3)oc2ccccc12`: the solubility was > 650 µg/mL.

On to `Cc1c(CN(C)C(=O)/C=C/c2cnc3c(c2)CNCC(=O)N3)oc2ccccc12`, for which the concentration in solution (solubility) came to 170 µg/mL (≈ 435 µM).

In the case of `CN(Cc1cc2ccccc2n1C)C(=O)/C=C/c1cnc2c(c1)CNCC(=O)N2`, the solubility is > 100 µg/mL.

The molecule `Cc1c(CN(C)C(=O)/C=C/c2cnc3c(c2)CNC(=O)CCN3)oc2ccccc12` displayed a solubility of 46 µg/mL (≈ 114 µM).

With `Cc1c(CN(C)C(=O)/C=C/c2cnc3c(c2)CNCCN3)sc2ccccc12`, the solubility was 100 µg/mL (≈ 255 µM).

As for `Cc1c(CN(C)C(=O)/C=C/c2cnc3c(c2)NCCC(=O)N3)sc2ccc(F)cc12`, the concentration in solution (solubility) came to 31 µg/mL (≈ 73 µM).

Test system in a further series: not listed separately
Briefly: physchem. To be noted: aqueous, pH 7.4.
Description: Aqueous solubility at pH 7.4
In turn, `Cc1c(CN(C)C(=O)/C=C/c2cnc3c(c2)NCCCN3)oc2ccccc12` showed a solubility of 29 µg/mL (≈ 77 µM).

The molecule `Cc1c(CN(C)C(=O)/C=C/c2cnc3c(c2)CNCCN3)oc2ccccc12` yielded a solubility of 440 µg/mL (≈ 1170 µM). This solubility lies about 15-fold higher than the previous one.

Molecule `Cc1c(CN(C)C(=O)/C=C/c2cnc3c(c2)CNCC(=O)N3)oc2ccccc12` yielded a solubility of 20 µg/mL (≈ 51.2 µM).

Molecule `CN(Cc1cc2ccccc2n1C)C(=O)/C=C/c1cnc2c(c1)CNCC(=O)N2` showed a solubility of 82 µg/mL (≈ 211 µM).

Take `Cc1c(CN(C)C(=O)/C=C/c2cnc3c(c2)CNC(=O)CCN3)oc2ccccc12`: the concentration in solution (solubility) was 17 µg/mL (≈ 42 µM). This solubility is about 4.8-fold lower than that of the molecule before.

In the case of `Cc1c(CN(C)C(=O)/C=C/c2cnc3c(c2)CNCCN3)sc2ccccc12`, the concentration in solution (solubility) came to 33 µg/mL (≈ 84.1 µM).

For `Cc1c(CN(C)C(=O)/C=C/c2cnc3c(c2)NCCC(=O)N3)sc2ccc(F)cc12`, the solubility worked out at 38 µg/mL (≈ 89.5 µM). This solubility and that of the molecule before are within 1.5-fold of each other.

The test system of the next series is Staphylococcus aureus. Briefly: microbe, parasite or virus in culture. Particulars: 29213.
Description: Antibacterial activity against Staphylococcus aureus 29213 by microdilution method
Consider `Cc1c(CN(C)C(=O)/C=C/c2cnc3c(c2)NCCCN3)oc2ccccc12`, for which the MIC is ≤ 0.016 µg/mL.

`Cc1c(CN(C)C(=O)/C=C/c2cnc3c(c2)CNCCN3)oc2ccccc12` yielded an MIC of 0.063 µg/mL (≈ 0.167 µM).

`Cc1c(CN(C)C(=O)/C=C/c2cnc3c(c2)CNCC(=O)N3)oc2ccccc12`: the MIC was ≤ 0.063 µg/mL.

`CN(Cc1cc2ccccc2n1C)C(=O)/C=C/c1cnc2c(c1)CNCC(=O)N2` came in with an MIC of 0.125 µg/mL (≈ 0.321 µM).

For `Cc1c(CN(C)C(=O)/C=C/c2cnc3c(c2)CNC(=O)CCN3)oc2ccccc12`, the MIC was ≤ 0.016 µg/mL.

Turning to `Cc1c(CN(C)C(=O)/C=C/c2cnc3c(c2)CNCCN3)sc2ccccc12`, the MIC is ≤ 0.016 µg/mL.

Regarding `Cc1c(CN(C)C(=O)/C=C/c2cnc3c(c2)NCCC(=O)N3)sc2ccc(F)cc12`, the MIC is ≤ 0.016 µg/mL.

The subject of a further series is Staphylococcus aureus. Briefly: microbe, parasite or virus in culture. To be noted: 43300.
Description: Antibacterial activity against methicillin-resistant Staphylococcus aureus 43300 by microdilution method
In turn, `Cc1c(CN(C)C(=O)/C=C/c2cnc3c(c2)NCCCN3)oc2ccccc12` had an MIC of 0.031 µg/mL (≈ 0.0823 µM).

Turning to `Cc1c(CN(C)C(=O)/C=C/c2cnc3c(c2)CNCCN3)oc2ccccc12`, the MIC turned out to be 0.063 µg/mL (≈ 0.167 µM).

Regarding `Cc1c(CN(C)C(=O)/C=C/c2cnc3c(c2)CNCC(=O)N3)oc2ccccc12`, the MIC was ≤ 0.063 µg/mL.

`CN(Cc1cc2ccccc2n1C)C(=O)/C=C/c1cnc2c(c1)CNCC(=O)N2` displayed an MIC of 0.125 µg/mL (≈ 0.321 µM).

Molecule `Cc1c(CN(C)C(=O)/C=C/c2cnc3c(c2)CNC(=O)CCN3)oc2ccccc12` displayed an MIC of 0.031 µg/mL (≈ 0.0766 µM).

Consider `Cc1c(CN(C)C(=O)/C=C/c2cnc3c(c2)CNCCN3)sc2ccccc12`, for which the MIC came out at 0.031 µg/mL (≈ 0.079 µM).

As to `Cc1c(CN(C)C(=O)/C=C/c2cnc3c(c2)NCCC(=O)N3)sc2ccc(F)cc12`, the MIC was ≤ 0.016 µg/mL.

A further series has as its system Staphylococcus aureus. Briefly: microbe, parasite or virus in culture. To be noted: 934335.
Description: Antibacterial activity against triclosan-resistant Staphylococcus aureus 934335 by microdilution method
As for `Cc1c(CN(C)C(=O)/C=C/c2cnc3c(c2)NCCCN3)oc2ccccc12`, the MIC amounted to 0.5 µg/mL (≈ 1.33 µM).

On to `Cc1c(CN(C)C(=O)/C=C/c2cnc3c(c2)CNCCN3)oc2ccccc12`, for which the MIC is 4 µg/mL (≈ 10.6 µM).

Molecule `Cc1c(CN(C)C(=O)/C=C/c2cnc3c(c2)CNCC(=O)N3)oc2ccccc12` registered an MIC of 0.125 µg/mL (≈ 0.32 µM).

`CN(Cc1cc2ccccc2n1C)C(=O)/C=C/c1cnc2c(c1)CNCC(=O)N2` had an MIC of 1 µg/mL (≈ 2.57 µM).

For the molecule `Cc1c(CN(C)C(=O)/C=C/c2cnc3c(c2)CNC(=O)CCN3)oc2ccccc12`, the MIC amounted to 0.5 µg/mL (≈ 1.24 µM).

`Cc1c(CN(C)C(=O)/C=C/c2cnc3c(c2)CNCCN3)sc2ccccc12` displayed an MIC of 2 µg/mL (≈ 5.1 µM).

As to `Cc1c(CN(C)C(=O)/C=C/c2cnc3c(c2)NCCC(=O)N3)sc2ccc(F)cc12`, the MIC amounted to 0.125 µg/mL (≈ 0.294 µM).

The next series deals with Escherichia coli. Briefly: microbe, parasite or virus in culture.
Settings: not given
In the case of `Cc1c(CN(C)C(=O)/C=C/c2cnc3c(c2)NCCCN3)oc2ccccc12`, the MIC was ≤ 0.063 µg/mL.

As for `Cc1c(CN(C)C(=O)/C=C/c2cnc3c(c2)CNCCN3)oc2ccccc12`, the MIC is ≤ 0.063 µg/mL.

Take `Cc1c(CN(C)C(=O)/C=C/c2cnc3c(c2)CNCC(=O)N3)oc2ccccc12`: the MIC was ≤ 0.063 µg/mL.

Molecule `CN(Cc1cc2ccccc2n1C)C(=O)/C=C/c1cnc2c(c1)CNCC(=O)N2` displayed an MIC of 1 µg/mL (≈ 2.57 µM).

For `Cc1c(CN(C)C(=O)/C=C/c2cnc3c(c2)CNC(=O)CCN3)oc2ccccc12`, the MIC is ≤ 0.063 µg/mL.

Regarding `Cc1c(CN(C)C(=O)/C=C/c2cnc3c(c2)CNCCN3)sc2ccccc12`, the MIC was ≤ 0.063 µg/mL.

The molecule `Cc1c(CN(C)C(=O)/C=C/c2cnc3c(c2)NCCC(=O)N3)sc2ccc(F)cc12` yielded an MIC of 1 µg/mL (≈ 2.36 µM).

The values above are taken from ChEMBL document CHEMBL1155987, “2,3,4,5-Tetrahydro-1H-pyrido[2,3-b and e][1,4]diazepines as inhibitors of the bacterial enoyl ACP reductase, FabI” (Bioorg Med Chem Lett, 2009).
